Results published in patent US9757327B2, “Abutilon indicum extracts and methods of use” (Avon Products, Inc., priority 2013, dated 2017).

Tested on: dorsal forearm skin of healthy female Caucasian subjects
Assay: In vivo biopsy (histology after 3 week patch treatment)
Parameters: species or system human
Conditions: 3 weeks semi-occlusion patch, 2 mg/cm^2, extract 0.33% active, retinol 0.05% active
Protocol: Healthy female Caucasian subjects aged 30-65, with skin type II or III and mild to moderate photo damage, were treated on the dorsal forearm for 3 weeks (3 consecutive rounds of 5×24 hour) under semi-occlusion patches. Test articles including active ingredients, vehicle controls, and retinol were applied in a randomized allocation on 6 sites on each forearm. The application dose was 2 mg/cm^2. After 3 week treatment, a 2 mm punch biopsy was obtained from each treatment site and fixed in 10% buffered formalin. Tissue samples then embedded in paraffin, sectioned (5 μm thickness), and stained for skin markers after re-hydration. […] Retinol at a active concentration of 0.05% was used as a positive control. Retinol use at a 0.05% active concentration in the semi-occlusion patch vehicle formulation yielded a visual score of approximately 0.56 out of a 4 point scale in HE staining (measuring hematoxylin and eosin staining, an indication of viable epidermal thickness and health) with 63.6% of the subjects showing an improvement; a visual score of 0.6 out of a 4 point scale in M-TC staining (Masson's trichrome staining, assessing total mature fiber-forming collagen in the dermis—mainly Collagen I, […] and Collagen V) with 51.6% of the subjects showing an improvement; a visual score of 0.52 out of a 4 point scale for pro-Col (measuring new synthesis of Collagen I by skin fibroblasts in the dermis) with 51.6% of the subjects showing an improvement; and a visual score of 0.57 out of a 4 point scale for HA (measuring level of hyaluronic acid in both dermis and epidermis) with 50% of the subjects showing an improvement.

## CC1=C(/C=C/C(C)=C/C=C/C(C)=C/CO)C(C)(C)CCC1 [Retinol]
  subjects showing an improvement, HA: 50 % of the subjects
  subjects showing an improvement, HE staining: 63.6 % of the subjects
  subjects showing an improvement, M-TC staining: 51.6 % of the subjects
  subjects showing an improvement, pro-Col: 51.6 % of the subjects
Out of a 4 point scale
  visual score for HA (hyaluronic acid in dermis and epidermis): 0.57
  visual score for pro-Col (new synthesis of Collagen I): 0.52
  visual score in HE staining (viable epidermal thickness and health): approximately 0.56
  visual score in M-TC staining (total mature fiber-forming collagen in the dermis): 0.6
